“Also recorded” adds a separate entry of the source.
How the values were obtained:
[1] = target: T1, mSPHK1a (Mus musculus, UniProt Q8CI15); assay: SPHK activity assay with recombinant mSPHK1a (lysates of transfected HEK293 cells); format: biochemical; conditions: for inhibition of SPHK1 activity: salt concentration 200 mM
T1 construct: made in house; host or cells: HEK293 (ATCC CRL-1573), transient transfection; unpurified cell lysate
Procedure: (§1) In FIGS. 5B and 5C, the SPHK activity in HEK293 cell lysates was measured 24 hours after transfection with mSPHK1 (FIG. 5B) or mSPHK2 (FIG. 5C) in the absence or presence of increasing concentrations of NaCl (open squares) or KCl (filled circles).
(§2) HEK293 cells were transfected with mSPHK1a (open circles) or mSPHK2 (filled circles) and the activities of each in cell lysates were measured after 24 hours in the presence of the indicated concentrations of Triton X-100 (FIG. 6A) or BSA (FIG. 6B).
(§3) HEK293 cells were transfected with mSPHK1a (circles) or mSPHK2 (triangles) and the activities of each in cell lysates were measured after 24 hours in the presence of the indicated concentrations of phosphatidylserine (filled symbols) or phosphatidylcholine (open symbols). Data are expressed as percentage of control activity measured without any additions.
(§4) Human embryonic kidney cells (HEK293, ATCC CRL-1573) and NIH 3T3 fibroblasts (ATCC CRL-1658) were cultured as described in Olivera, A., Kohama, T., Edsall, L. C., Nava, V., Cuvillier, O., Poulton, S., and Spiegel, S., J. Cell Biol., 147 (1999) 545-558. HEK293 cells were seeded at 6×10^5 per well in poly-L-lysine coated 6 well plates. After 24 hours, cells were transfected with 1 μg of vector alone or with vectors containing sphingosine kinase constructs and 6 μl of “Lipofectamine PLUS” reagent plus 4 μl of “Lipofectamine” reagent per well. One to three days after transfection, cells were harvested and lysed by freeze-thawing as described in Kohama, T., Olivera, A., Edsall, L., Nagiec, M. M., Dickson, R., and Spiegel, S., J. Biol. Chem., 273, (1998), 23722-23728. In some experiments, cell lysates were fractionated into cytosol and membrane fractions by centrifugation at 100,000×g for 60 minutes. SPHK activity was determined in the presence of sphingosine, prepared as a complex with 4 mg/ml BSA, and [g-32P] ATP in kinase buffer (Olivera, A. and Spiegel, S. in Methods in Molecular Biology, (Bird, I. M. ed.), (1998), Vol. 105, 233-242, Humana Press, Inc., Totowa, N.J.), containing 200 mM KCl, unless indicated otherwise. 32P-SPP was separated by TLC and quantified with a phosphoimager as previously described.

[2] = target: T2, mSPHK2 (Mus musculus, UniProt Q9JIA7); assay: SPHK activity assay with recombinant mSPHK2 (cytosol/lysates of transfected HEK293 cells, [g-32P]ATP, TLC); format: biochemical; conditions: for SPHK-dependent phosphorylation by SPHK2 (substrate specificity): lipids 50 mM as printed, cytosol of HEK293 cells transfected with mSPHK2, compared with D-erythro-sphingosine; for salt concentration with maximal stimulation of SPHK2 activity: increasing salt concentration, FIG. 5C
T2 construct: The open reading frames of mSPHK2 and hSPHK2 encode polypeptides of 617 and 618 amino acids, respectively; made in house; host or cells: HEK293 (ATCC CRL-1573), transient transfection; unpurified cytosol or whole lysate
T2 sequence (Q9JIA7 1-617): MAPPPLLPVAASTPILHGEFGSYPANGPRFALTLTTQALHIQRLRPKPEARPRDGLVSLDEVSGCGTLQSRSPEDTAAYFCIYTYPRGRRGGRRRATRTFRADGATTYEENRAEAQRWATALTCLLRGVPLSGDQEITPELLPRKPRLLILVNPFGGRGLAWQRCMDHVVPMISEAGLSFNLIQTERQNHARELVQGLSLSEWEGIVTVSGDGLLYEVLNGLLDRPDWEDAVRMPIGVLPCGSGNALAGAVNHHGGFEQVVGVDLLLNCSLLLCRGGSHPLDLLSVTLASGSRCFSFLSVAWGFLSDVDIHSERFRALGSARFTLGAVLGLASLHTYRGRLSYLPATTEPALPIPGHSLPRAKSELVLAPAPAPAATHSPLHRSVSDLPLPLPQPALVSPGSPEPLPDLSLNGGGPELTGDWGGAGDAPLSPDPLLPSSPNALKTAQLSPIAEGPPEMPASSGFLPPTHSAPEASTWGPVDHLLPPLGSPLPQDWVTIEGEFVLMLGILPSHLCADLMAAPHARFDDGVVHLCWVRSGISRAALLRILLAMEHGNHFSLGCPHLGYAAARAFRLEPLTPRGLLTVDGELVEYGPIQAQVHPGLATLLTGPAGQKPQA
Procedure: Lanes: 1, D-erythro-sphingosine (“D-erythro-Sph”); 2, D-erythro-dihydrosphingosine (“D-erythro-DHS”); 3, D, L-threo-DHS; 4, N,N-dimethylsphingosine (“DMS”); 5, C2-ceramide; 6, C16-ceramide; 7, diacylglycerol; 8, phosphatidylinositol; 9, phytosphingosine. Data are expressed as percentage of phosphorylation of D-erythro-Sph.
SPHK activity in HEK293 cell lysates after transfection as in FIG. 4A was measured with 10 μM D-erythro-sphingosine in the presence of increasing concentrations of DMS.
SPHK activity was measured with varying concentrations of D-erythro-sphingosine in the absence (open circles) or presence of 10 μM (filled squares) or 20 μM DMS (filled triangles).
FIG. 4D are Lineweaver-Burk plots.
as §1
FIG. 5E are Lineweaver-Burk plots of data from FIG. 5D.
as §2, §3, §4

[3] = target: T1, mSPHK1a; conditions: cited from earlier work; for inhibition of SPHK1: previously shown (Edsall et al. 1998)
[4] = test system: HEK293 cells; assay: SPHK activity in HEK293 cells transiently transfected with SPHK expression vectors (cytosol and particulate fractions); format: cell-based, human; conditions: 24 hours after transfection of HEK293 cells
Procedure: In FIG. 3A, HEK 293 cells were transiently transfected with an empty vector or with mSPHK2 or hSPHK2 expression vectors. After 24 hours, SPHK activity was measured in cytosol (open bars) and particulate fractions (filled bars). The data are means±S.D. Parental and vector-transfected cells had basal SPHK activities of 26 and 37 pmol/min/mg, respectively.
as §4

[5] = test system: HEK293 cells; assay: Mass levels of SPP in HEK293 cells after transfection with SPHK2; format: cell-based, human; conditions: HEK 293 cells after transfection
Procedure: Mass levels of SPP in HEK293 cells transfected with an empty vector (open bars) or with mSPHK2 (filled bars) or with hSPHK2 (hatched bars) were measured as described hereinbelow. The data are expressed as pmol/nmol phospholipid.
Cells were washed with PBS and scraped in 1 ml of methanol containing 2.5 μl concentrated HCl. Lipids were extracted by adding 2 ml chloroform/1M NaCl (1:1, v/v) and 100 μl 3N NaOH and phases separated. The basic aqueous phase containing SPP, and devoid of sphingosine, ceramide, and the majority of phospholipids, was transferred to a siliconized glass tube. The organic phase was re-extracted with 1 ml methanol/1M NaCl (1:1, v/v) plus 50 μl 3N NaOH, and the aqueous fractions were combined. Mass measurement on SPP in the aqueous phase and total phospholipids in the organic phase were measured exactly as described in Edsall, L. C., Pirianov, G. G., and Spiegel, S., J. Neurosci., 17, (1997) 6952-6960; Edsall, L. C., and Spiegel, S., Anal. Biochem., 272, (1999) 80-86).

T1 sequence (Q8CI15 1-381 isoform Q8CI15-3): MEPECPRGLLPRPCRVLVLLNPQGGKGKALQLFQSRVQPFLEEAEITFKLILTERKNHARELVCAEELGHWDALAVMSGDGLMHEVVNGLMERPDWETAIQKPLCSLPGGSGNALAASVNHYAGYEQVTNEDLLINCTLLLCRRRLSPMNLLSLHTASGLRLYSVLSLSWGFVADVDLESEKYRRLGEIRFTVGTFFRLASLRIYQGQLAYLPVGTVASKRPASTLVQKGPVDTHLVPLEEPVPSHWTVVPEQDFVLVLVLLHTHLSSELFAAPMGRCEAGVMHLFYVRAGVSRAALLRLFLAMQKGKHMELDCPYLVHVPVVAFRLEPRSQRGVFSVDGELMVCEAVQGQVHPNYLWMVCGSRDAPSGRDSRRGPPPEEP

CCCCCCCCCCCCCC[C@@H](O)[C@@H](O)[C@@H](N)CO [phytosphingosine]
phosphorylation by SPHK1 [1]: not phosphorylated at all
SPHK-dependent phosphorylation by SPHK2 (substrate specificity) [2]: significantly phosphorylated; also recorded: to a lesser extent

Triton X-100
increase of SPHK1 activity ([1]; Triton X-100 0.5%): more than 4 fold
effect on SPHK1 activity ([1]; detergent below 0.005%): no effect
effect on SPHK1 activity ([1]; in words): markedly increased
effect on SPHK2 activity ([2]; Triton X-100 0.5%): almost completely inhibited
effect on SPHK2 activity ([2]; detergent below 0.005%): no effect
effect on SPHK2 activity ([2]; in words): inhibited

[Cl-].[K+] [KCl]
inhibition of SPHK1 activity [1]: 50%
Km value of mSPHK2 for sphingosine in the presence of KCl ([2]; 50 or 200 mM KCl): not affected
Vmax of mSPHK2 ([2]; in the presence of 50 mM KCl): 0.3 nmol/min/mg
Vmax of mSPHK2 ([2]; in the presence of 200 mM KCl): 1 nmol/min/mg
effect on SPHK2 activity ([2]; in words): dramatically stimulated; also recorded: markedly stimulated
salt concentration with maximal stimulation of SPHK2 activity [2]: 400 mM

phosphatidylcholine [phosphatidyicholine]
effect on SPHK1 activity ([1]; in words): no effect
effect on SPHK2 activity ([2]; in words): no effect

CCCCCCCCCCCCCCC[C@@H](O)[C@@H](N)CO [DHS, dihydrosphingosine]
inhibition of SPHK1 [3]: potent competitive inhibitors; also recorded: potent inhibitor
SPHK-dependent phosphorylation by SPHK2 (substrate specificity) [2]: even better substrate than D-erythro-sphingosine

phosphatidylserine
effect on SPHK1 activity ([1]; in words): stimulated
maximal increase of SPHK1 activity ([1]; phosphatidylserine 40 μg/ml): 4 fold
effect on SPHK2 activity ([2]; in words): stimulated
maximal increase of SPHK2 activity ([2]; phosphatidylserine 40 μg/ml): 4 fold

CCCCCCCCCCCCC/C=C/[C@@H](O)[C@@H](N)CO [D-erythro-sphingosine]
phosphorylation by SPHK1 (substrate rank) ([3]; Kohama et al. 1998): best substrate

CCCCCCCCCCCCCCC[C@@H](O)[C@@H](N)CO [D-erythro-dihydrosphingosine]
SPHK-dependent phosphorylation by SPHK2 (substrate specificity) [2]: better substrate for SPHK2 than D-erythro-sphingosine

CCCCCCCCCCCCC/C=C/[C@@H](O)[C@H](CO)NC(C)=O [C2-ceramide]
SPHK-dependent phosphorylation by SPHK2 (substrate specificity) [2]: not phosphorylated

phosphatidylinositol
SPHK-dependent phosphorylation by SPHK2 (substrate specificity) [2]: not phosphorylated

CCCCCCCCCCCCCCC[C@H](O)[C@@H](N)CO [D,L-threo-dihydrosphingosine]
phosphorylation by SPHK1 [1]: not phosphorylated at all
SPHK-dependent phosphorylation by SPHK2 (substrate specificity) [2]: significantly phosphorylated
SPHK-dependent phosphorylation by SPHK2 (substrate specificity) ([2]; listed as D, L-threo-dihydrosphingosine): to a lesser extent

diacylglycerol
SPHK-dependent phosphorylation by SPHK2 (substrate specificity) [2]: not phosphorylated

CCCCCCCCCCCCC/C=C/[C@@H](O)[C@H](CO)NC(=O)CCCCCCCCCCCCCCC [C16-ceramide]
SPHK-dependent phosphorylation by SPHK2 (substrate specificity) [2]: not phosphorylated

[Cl-].[Na+] [NaCl]
inhibition of SPHK1 activity [1]: 50%
effect on SPHK2 activity ([2]; in words): dramatically stimulated; also recorded: markedly stimulated
salt concentration with maximal stimulation of SPHK2 activity [2]: 400 mM

mSPHK1: first cloned mammalian (murine) sphingosine kinase, type 1
increase of in vitro SPHK activity over basal levels [4]: 610 fold

N,N-dimethylsphingosine [DMS]
inhibition of SPHK1 [3]: potent competitive inhibitors; also recorded: competitive inhibitor
inhibition of SPHK2 ([2]; 10 μM D-erythro-sphingosine, increasing concentrations of DMS (FIG. 4B)): potent inhibitor
manner of inhibition of SPHK2 ([2]; kinetic analysis, FIG. 4C and 4D): non-competitive
SPHK-dependent phosphorylation by SPHK2 (substrate specificity) [2]: not phosphorylated
Ki ([2]; recombinant mSPHK2, HEK293 cell lysates, varying D-erythro-sphingosine, 10 or 20 μM DMS, Lineweaver-Burk, read-out: Ki for DMS with SPHK2): 12 µM

B1: hSPHK2: human sphingosine kinase type 2, polypeptide of 618 amino acids (SEQ ID NO 14) (protein)
chain: MAPPPPPLAASTPLLHGEFGSYPARGPRFALTLTSQALHIQRLRPKPEARPRGGLVPLAEVSGCCTLRSRSPSDSAAYFCIYTYPRGRRGARRRATRTFRADGAATYEENRAEAQRWATALTCLLRGLPLPGDGEITPDLLPRPPRLLLLVNPFGGRGLAWQWCKNHVLPMISEAGLSFNLIQTERQNHARELVQGLSLSEWDGIVTVSGDGLLHEVLNGLLDRPDWEEAVKMPVGILPCGSGNALAGAVNQHGGFEPALGLDLLLNCSLLLCRGGGHPLDLLSVTLASGSRCFSFLSVAWGFVSDVDIQSERFRALGSARFTLGTVLGLATLHTYRGRLSYLPATVEPASPTPAHSLPRAKSELTLTPDPAPPMAHSPLHRSVSDLPLPLPQPALASPGSPEPLPILSLNGGGPELAGDWGGAGDAPLSPDPLLSSPPGSPKAALHSPVSEGAPVIPPSSGLPLPTPDARVGASTCGPPDHLLPPLGTPLPPDWVTLEGDFVLMLAISPSHLGADLVAAPHARFDDGLVHLCWVRSGISRAALLRLFLAMERGSHFSLGCPQLGYAAARAFRLEPLTPRGVLTVDGEQVEYGPLQAQMHPGIGTLLTGPPGCPGREP
increase of in vitro SPHK activity over basal levels [4]: 35 fold
increase in SPP [5]: 3.3 fold

— patent US6800470B2, “Mammalian sphingosine kinase type 2 isoforms, cloning, expression and methods of use thereof” (Sankyo Company, Ltd., priority 2000, dated 2004)
